Assay results published in article PMC11989212, “Experimental Conditions to Retrieve Intrinsic Cooperativity α Directly from Single Binding Assay Data Exemplified by the Ternary Complex Formation of FKBP12, MAPRE1 and Macrocyclic Molecular Glues” (International Journal of Molecular Sciences, 2025).
“And” between values parts separate entries of the source, which are not always exact repeats. Equal entries are not always repeated. Where two headings read alike, the source gives them in different places.

How the values were obtained:
FKBP12 [1] = target: T1, FKBP12 (Homo sapiens, UniProt P62942); test: Spectral shift target engagement assay, binary binding to FKBP12; conditions: 40 nM FKBP12-NTA; for EC50: no MAPRE1, read-out: EC50 of the %Cbound, binary curve; for Kd: KC,1 = EC50 − [Ctot]/2
Excerpt: (§1) Our method of choice is the spectral shift method, which monitors binding events on the target isothermally and in equilibrium via an environment-sensitive near-infrared fluorophore. In the case of target engagement, either the proximity of the ligand towards the dye or structural changes occurring in the target as a result of binding lead to a change in the chemical environment of the fluorophore. Those changes affect the physiochemical properties of the reporter fluorophore and translate into either blue or red shifts (or peak broadening) of emission peaks upon ligand binding, which can be sensitively monitored by simultaneously recording the fluorescence at two wavelengths (i.e., at 650 nm and 670 nm). Calculating the ratio between the two fluorescence channels then allows to monitor subtle emission shifts that occur as a result of target engagement. Affinity measurements can then be performed by recording the spectral shift as a function of ligand concentration.
(§2) Binding studies through FKBP12: To monitor the binding of R,--SLF-11 by the stronger binding FKBP12 in the absence and in the presence of 10 μM MAPRE1 via %Cbound, binary and %Cbound, ternary, respectively, the concentration of reversibly NTA-labeled FKBP12 was limited to [Ctot] = 40 nM. […] In contrast to the experimental setup in the previous two binding experiments with monitoring through the weaker binding protein MAPRE1, where the applied protein concentrations were optimally chosen, this is not the case for the binding experiment through the stronger binder FKBP12. First of all, the applied excess of T with [Ttot] = 10 μM is roughly 20000-fold off of the proposed 100 times KT,1 threshold, which would correspond to 180 mM. Only under such excess conditions of T can the equilibrium of forming TL under the constraint that all ligand L is bound to T be reached to ensure that [Ltot] approaches the “ligand” concentration [TL]. […] If KC,2 is sufficiently high, the 20 nM deviation to correct for the protein concentration could be neglected. However, the resulting calculated value for KC,2 is 0.023 nM, accounting for the cooperativity α = 10,405 and KC,1 = 234 nM as derived by the MAPRE1 experiment. This value is far below the applied protein concentration of [Ctot] = 40 nM and makes it infeasible to estimate KC,2 from the EC50 of the %Cbound, ternary curve. Consequently, the EC50 shifts, meaning the apparent cooperativity, from monitoring the binding by the stronger binding protein C are diverging from the underlying intrinsic cooperativity α. […] The deviation of calculated (254 nM/24.2 nM = 10.5) and measured apparent cooperativity (254 nM/66 nM = 3.8) can be explained by a negative cooperativity induced by the His6-NTA tag of FKBP12. Studies to lower [Ctot] and identify a better position for the spectral shift tag on FKBP12 are ongoing (Figure 6a).
(§3) His-tagged FKBP12 was labeled using the His-Tag Labeling Kit RED-tris-NTA 2nd Generation (MO-L018; NanoTemper Technologies GmbH). The affinity between NTA dye and the His-tag of FKBP12 was determined as 7 nM. MAPRE1 was labeled using the Protein Labeling Kit RED-NHS 2nd Generation (MO-L011; NanoTemper Technologies GmbH). In brief, 10 µM of MAPRE1 was incubated with a 3-fold molar excess of fluorophore for 30 min. The unreacted fluorophore was removed by performing a size exclusion purification (B-column). Collecting the protein fraction yielded 1.8 µM labeled MAPRE1, with a degree of labeling of 0.8, as determined on a Nanodrop.
(§4) A 1:2 dilution series of all compounds (starting from the 10 mM stock concentration) was prepared in pure DMSO. Each concentration was diluted 25-fold with assay buffer (20 mM HEPES, pH 7.4, 150 mM NaCl, 1 mM DTT (all from Carl Roth, Karlsruhe, Germany), and 0.01% Pluronic F-127 (Sigma Aldrich, Taufkirchen, Germany)). Next, 10 µL from each of the prepared ligand dilutions was transferred into an empty well on a Dianthus Microwell Plate (DI-P001A). […]

[2] = target: FKBP12 in the presence of MAPRE1 (Homo sapiens, UniProt P62942+Q15691); test: Spectral shift target engagement assay, binding to FKBP12 in the presence of 10 μM MAPRE1 (ternary)
Excerpt: as §1, §2, §3, §4

[3] = target: T2, MAPRE1 in the presence of FKBP12 (Homo sapiens, UniProt P62942+Q15691); test: Spectral shift target engagement assay, binding to MAPRE1 in the presence of 10 μM FKBP12 (ternary); conditions: for EC50: 5 nM MAPRE1-NHS, 10 μM FKBP12, read-out: EC50 of the %Tbound, ternary curve; for Ratio [Ctot]/KC,1: [Ctot] = 10 μM FKBP12; for 100 × (EC50 %Tbound ternary − 0.5 [Ttot] − KT,2)/KT,2: difference between EC50 of the %Tbound, ternary curve and KT,2; for 100 × (EC50 %Tbound ternary − 0.5 [Ttot] − KT,2)/KT,2 / Intrinsic cooperativity α: [Ttot] = 5 nM; for Intrinsic cooperativity α: from KC,1, KT,1 and EC50 of the %Tbound, ternary curve with the mathematical model, [Ctot] = 10,000 nM; for Kd: ternary Kd, model-based ([CL] at [Ltot] = EC50), read-out: KT,2
T2 construct: His-tag (N)
Excerpt: as §1
(§5) Binding study through MAPRE1: MAPRE1 was labeled via lysines using an NHS-conjugated dye. The final concentration of MAPRE1NHS (referring to [Ttot]) was 5 nM. Compounds could be titrated up to a concentration of 200 μM (referring to [Ltot]). […] However more accuracy could only be achieved at higher ligand concentrations—ideally at full target saturation. However, this was experimentally infeasible due to assay conditions (i.e., the requirement of maintaining a certain DMSO concentration or avoiding solubility issues of the ligand). Although the determined KT,1 values of binding to MAPRE1 are only approximations, their relative ranking reflects the underlying differences in the affinity of the ligands L to MAPRE1. Performing these experiments in duplicates confirmed the high signal-to-noise ratio, i.e., there was no significant deviation between the two curves, indicating a high accuracy of the interpolated EC50 values. Due to the low [Ttot] = 5 nM, this value coincides with KT,1 (1.8 mM − 0.005 mM/2 ≈ 1.8 mM). […] Consequently, KT,2 corresponds to 173 nM and not 177.5 nM.
as §3
(§6) A 1:2 dilution series of all compounds (starting from the 10 mM stock concentration) was prepared in pure DMSO. Each concentration was diluted 25-fold with assay buffer (20 mM HEPES, pH 7.4, 150 mM NaCl, 1 mM DTT (all from Carl Roth, Karlsruhe, Germany), and 0.01% Pluronic F-127 (Sigma Aldrich, Taufkirchen, Germany)). Next, 10 µL from each of the prepared ligand dilutions was transferred into an empty well on a Dianthus Microwell Plate (DI-P001A). Another 10 µL of 2-fold concentrated labeled protein (either in the absence or the presence of 20 µM counter protein, both in assay buffer then yielded the final assay concentrations. Interaction measurements were prepared in duplicates for each condition. For binary interactions of compounds with MAPRE1, a final target concentration of 5 nM and a highest ligand concentration of 50 µM was prepared. For ternary interactions of compounds and MAPRE1 in the presence of 10 µM unlabeled FKBP12, the highest ligand concentration was increased to 200 µM, the highest concentration achievable while maintaining a constant 2% DMSO concentration. For all interactions measured via FKBP12, the target was prepared at a final concentration of 40 nM, supplemented with 5 nM NTA fluorophore. […]

[4] = system: FKBP12:R,S-SLF-X:MAPRE1 ternary complex; design: method as in PMID 40059881; conditions: TR-FRET proximity assay, reported earlier; cited from earlier work
MAPRE1 = target: T3, MAPRE1 (Homo sapiens, UniProt Q15691); test: Spectral shift target engagement assay, binary binding to MAPRE1; conditions: 5 nM MAPRE1-NHS, interpolated; for EC50: no FKBP12, read-out: EC50 of the %Tbound, binary curve; for Kd: approximation, read-out: Spectral Shift Binary MAPRE1 KT,1
T3 construct: His-tag (N)
T3 sequence (Q15691 1-268): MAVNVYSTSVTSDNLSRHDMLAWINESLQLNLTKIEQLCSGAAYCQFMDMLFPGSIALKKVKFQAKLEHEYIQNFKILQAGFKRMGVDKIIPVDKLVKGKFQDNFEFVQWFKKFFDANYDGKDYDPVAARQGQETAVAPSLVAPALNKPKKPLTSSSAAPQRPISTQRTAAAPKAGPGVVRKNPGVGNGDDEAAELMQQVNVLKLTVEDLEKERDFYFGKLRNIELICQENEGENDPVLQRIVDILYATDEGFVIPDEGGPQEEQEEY
Excerpt: as §1, §5, §3, §6

FKBP12 [5] = target: T1, FKBP12; design: method as in PMID 40059881; conditions: TR-FRET competitive binding assay from previous work; listed as R,R-SLF-1d; read-out: EC50_FKBP12; cited from earlier work
[6] = target: His-tagged FKBP12, labeled with RED-tris-NTA dye (UniProt P62942); test: other fluorescence titration; spectral shift, no compound: 40 nM labeled FKBP12 vs. 10,000 nM MAPRE1
[7] = 40 nM FKBP12-NTA, 10 μM MAPRE1, read-out: EC50 of the %Cbound, ternary curve (measured)
[8] = calculated with the model using α from MAPRE1 binding, read-out: calc EC50 of the %Cbound, ternary curve

FKBP12 in the presence of MAPRE1, sequence (P62942 whole entry, one chain of several): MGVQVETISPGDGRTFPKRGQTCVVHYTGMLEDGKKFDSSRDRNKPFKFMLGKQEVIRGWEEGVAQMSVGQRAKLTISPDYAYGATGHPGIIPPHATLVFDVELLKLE
T1 sequence (P62942 whole entry, species assumed): as the sequence (P62942 whole entry, one chain of several) above
T2 sequence (P62942 whole entry, one chain of several): as above
His-tagged FKBP12, labeled with RED-tris-NTA dye, sequence (P62942 whole entry): as the sequence (P62942 whole entry, one chain of several) above

| Compound | EC50 (FKBP12 [1]) [µM] | Kd (FKBP12 [1]) [µM] | EC50 [2, 7] [µM] | EC50 [3] [µM] | Ratio [Ctot]/KC,1 [3] | 100 × (EC50 %Tbound ternary − 0.5 [Ttot] − KT,2)/KT,2 [3] [%] | Intrinsic cooperativity α [3] | Kd [3] | TR-FRET Recruitment Assay (%Amax) [4] [%] | EC50 [2, 8] [µM] | EC50 (MAPRE1) [µM] | Kd (MAPRE1) [µM] | EC50 (FKBP12 [5]) [µM] | Kd [6] [µM] |
| --- | --- | --- | --- | --- | --- | --- | --- | --- | --- | --- | --- | --- | --- | --- |
| C=C1CCN2C(=O)COc3cccc(c3)C(CCc3ccc(OC)c(OC)c3)OC(=O)C3CCCCN3C(=O)C(=O)C(C)(C)COC(=O)C(C)(C)NC(=O)C2C1 (stereo not drawn) [R,--SLF-10] | 0.128 | 0.108 | 0.04 | 0.377 | 93 | 1.2 | 5405 | 0.37 µM | 135 | – | – | – | – | – |
| C=C1CCN2C(=O)COc3cccc(c3)C(CCc3ccc(OC)c(OC)c3)OC(=O)C3CCCCN3C(=O)C(=O)C(C)(C)COC(=O)C3(CC3)NC(=O)C2C1 (stereo not drawn) [R,--SLF-11] | 0.254 | 0.234 | 0.066 | 0.18 | 41 | 2.6 | 10,405 | 0.173 µM | 350 | – | – | – | – | – |
| C=C1CCN2C(=O)COc3cccc(c3)C(CCc3ccc(OC)c(OC)c3)OC(=O)C3CCCCN3C(=O)C(=O)C(C)(C)COC(=O)C(CC)NC(=O)C2C1 (stereo not drawn) [R,S-SLF-3] | 0.086 | 0.066 | 0.049 | 0.827 | 152 | 0.8 | 2200 | 0.818 µM | 93 | 0.025 | > 200 | > 200 | – | – |
| C=C1CCN2C(=O)COc3cccc(c3)C(CCc3ccc(OC)c(OC)c3)OC(=O)C3CCCCN3C(=O)C(=O)C(C)(C)COC(=O)C(CO)NC(=O)C2C1 (stereo not drawn) [R,S-SLF-6] | 0.065 | 0.045 | 0.024 | 0.114 | 222 | 0 | 4484 | ~0.111 µM and 0.111 µM | 255 | 0.021 | > 200 | > 200 | – | – |
| C=C1CCN2C(=O)COc3cccc(c3)C(CCc3ccc(OC)c(OC)c3)OC(=O)C3CCCCN3C(=O)C(=O)C(C)(C)COC(=O)C(C(F)(F)F)NC(=O)C2C1 (stereo not drawn) [R,S-SLF-8] | 0.129 | 0.109 | 0.065 | 1.07 | 92 | 1.1 | 1509 | 1.06 µM | 27 | 0.031 | > 200 | > 200 | – | – |
| C=C1CCN2C(=O)COc3cccc(c3)C(CCc3ccc(OC)c(OC)c3)OC(=O)C3CCCCN3C(=O)C(=O)C(C)(C)COC(=O)C(CCOC)NC(=O)C2C1 (stereo not drawn) [R,S-SLF-9] | – | – | – | – | – | – | – | – | 51 | – | – | – | – | – |
| C=C1CCN2C(=O)COc3cccc(c3)C(CCc3ccc(OC)c(OC)c3)OC(=O)C3CCCCN3C(=O)C(=O)C(C)(C)COC(=O)C(C)NC(=O)C2C1 (stereo not drawn) [S,S-SLF-1d] | 0.027 | 0.007 | 0.029 | > 1400 | 1428 and 1429 | – | No positive cooperativity | – | 0 | – | > 200 | > 200 | 0.72 | – |
| unlabeled MAPRE1 (from UniProt Q15691 1-268) (natural protein) | – | – | – | – | – | – | – | – | – | – | – | – | – | > 100 |
